Measured values taken from patent US6689395B2, “Pesticidal compositions containing plant essential oils against mites” (priority 1999, dated 2004).

Test system: mold mite
Test: Toxicity of plant essential oils fogged into food cartons against mold mites
Assay type: in vivo
Conditions: for control of the mites (pest mortality): about 1 g test substance fogged into half pint milk carton, about 100 mites per carton, cartons opened at 24 hour intervals, from day one; for control of the mites (mortality): repeated experiment, cartons not opened until day ten
Excerpt: Half pint milk cartons were used as sample food containers. The composition of the carton is multilayer paper, plastic and foil. The last two inner layers are foil and plastic; the food inside the carton is in contact with the plastic. Utilizing a ULV sprayer, the plant essential oils were fogged into the container. Approximately one gram of liquid test substance (i.e. plant essential oil) was deposited into the container. The desired amount of food and approximately 100 mites per carton were then added to the container and the carton was sealed. The materials tested included 2-phenyl ethyl alcohol, 2-phenyl ethyl propionate, trans-anethole, and benzyl alcohol. The cartons were opened at 24 hour intervals, a new carton each interval, to observe for pest mortality and the results were recorded.
The experiment was repeated, but the cartons were not opened until day ten.

With CCC(=O)OCCc1ccccc1 [2-phenyl ethyl propionate] the “control of the mites (pest mortality)” value was “good control” and the “control of the mites (mortality)” value was “best results of mortality”.

OCCc1ccccc1 [2-phenyl ethyl alcohol] was tested, and the “control of the mites (pest mortality)” value was “good control” and the “control of the mites (mortality)” value was “best results of mortality”.
